Experimental data from paper PMC9937549 (Frontiers in tropical diseases, 2023).
pEC50: −log10 of the molar value. In brackets after ≈: the same amount, converted by molar mass.

What was measured:
[1] = system: L. donovani intracellular amastigotes infecting THP-1 cells; assay: Intracellular amastigote assay; assay type: cell-based, Leishmania donovani; conditions: for inhibition of parasite growth (primary screen): single point 10 μM, L. donovani amastigotes in THP-1; for pEC50: read-out: Intracellular Amastigote EC50, Leishmania donovani, THP-1 host, 72 h
[2] = system: L. donovani promastigotes; assay: Promastigote assay; assay type: cell-based; conditions: read-out: Extracellular promastigote EC50; Leishmania donovani, 72 h
[3] = system: L. major intracellular amastigotes; assay: Intracellular amastigote assay; assay type: cell-based; conditions: read-out: Intracellular Amastigote EC50; Leishmania major, THP-1 host, 72 h
L. major promastigotes = assay: Promastigote assay; assay type: cell-based; conditions: read-out: Extracellular promastigote EC50; Leishmania major, 72 h
THP-1 cells = assay: Host THP-1 cell cytotoxicity; assay type: cell-based, human; conditions: for cytotoxicity to the host THP-1 cells (GI): primary screen, single point 10 μM; for CC50: read-out: Host (THP-1) cell CC50, UCSF assay
[4] = system: L. donovani intracellular amastigotes infecting THP-1 macrophages; assay: GSK intramacrophage L. donovani assay; assay type: cell-based, Leishmania donovani; conditions: read-out: LD AMMAC EC50; growth inhibition of L. donovani intracellular amastigotes infecting THP-1 macrophages (GSK)
host THP-1 macrophages = assay: GSK LD MAC host cell toxicity readout of inMac assay; assay type: cell-based; conditions: read-out: LD MAC EC50; cytotoxicity against host THP-1 macrophages (GSK)
HepG2 cells = assay: HepG2 cytotoxicity; assay type: cell-based
[5] = Kinetic aqueous solubility by CLND; assay type: physicochemical; conditions: high-throughput CLND
[6] = Artificial membrane permeability; assay type: in vitro ADME; conditions: pH 7.4
human serum albumin = human serum albumin (Homo sapiens, UniProt P02768); assay: Human serum albumin; assay type: in vitro ADME; conditions: immobilized HSA column
Sequence of human serum albumin (P02768 25-609): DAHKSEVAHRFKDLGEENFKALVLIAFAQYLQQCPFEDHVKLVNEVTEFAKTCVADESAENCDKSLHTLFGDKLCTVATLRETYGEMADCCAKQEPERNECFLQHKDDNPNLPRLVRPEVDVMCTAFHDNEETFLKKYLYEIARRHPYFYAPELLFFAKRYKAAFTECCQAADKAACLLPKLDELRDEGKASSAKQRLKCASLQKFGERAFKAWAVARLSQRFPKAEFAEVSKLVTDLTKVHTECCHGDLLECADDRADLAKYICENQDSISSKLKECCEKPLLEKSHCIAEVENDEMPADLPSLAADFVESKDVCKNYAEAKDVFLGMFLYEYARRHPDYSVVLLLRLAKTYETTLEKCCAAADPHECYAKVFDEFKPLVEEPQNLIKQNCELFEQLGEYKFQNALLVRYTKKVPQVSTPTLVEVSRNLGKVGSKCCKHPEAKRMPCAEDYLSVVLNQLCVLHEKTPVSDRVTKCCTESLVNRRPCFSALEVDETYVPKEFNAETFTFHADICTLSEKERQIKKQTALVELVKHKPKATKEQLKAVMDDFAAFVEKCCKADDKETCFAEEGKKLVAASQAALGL

Property forecast index = assay type: physicochemical; conditions: ChromLogD7.4 + Aromatic rings
[7] = system: L. donovani intracellular amastigotes infecting B10R cells; assay: Intracellular amastigote assay; assay type: cell-based; conditions: read-out: L. donovani EC50; intracellular amastigotes infecting B10R cells (UCSD assay), average of two biological replicates
host B10R cells = assay type: cell-based
FaSSIF solubility = assay type: physicochemical; conditions: racemate
[8] = assay type: in vitro ADME; conditions: microsomes
Whole blood stability = assay type: in vitro ADME; conditions: criterion: no % reduction over 120 min; racemate
Plasma protein binding = assay type: in vitro ADME; conditions: racemate, rapid equilibrium dialysis
[9] = system: intramacrophage Leishmania; conditions: read-out: intramacrophage EC50; cited from earlier work
[10] = system: intracellular parasites of Leishmania donovani; assay: Antileishmanial potency against visceral leishmaniasis; assay type: cell-based; conditions: read-out: EC50 (visceral leishmaniasis)
host macrophage = assay: Host cell cytotoxicity in the same assay; assay type: cell-based; conditions: abstract

Row | Structure (SMILES) | inhibition of parasite growth (primary screen) [1] [%] | pEC50 [1] | pEC50 [2] | pEC50 [3] | pEC50 (L. major promastigotes) | cytotoxicity to the host THP-1 cells (GI) (THP-1 cells) [% GI] | CC50 (THP-1 cells) [nM] | pEC50 [4] | pEC50 (host THP-1 macrophages) | pEC50 (HepG2 cells) | Solubility (CLND) [5] [µM] | AMP [6] [nm/s] | HSA Binding (human serum albumin) [%] | PFI (Property forecast index) | pEC50 [9] | further results
1 | COc1ccc(N2C(=O)c3[nH]nc(CC(C)C)c3C2c2ccc(C)cc2)cc1 (stereo not shown) [CMLD007430] | 0 | – | – | – | – | – | – | – | – | – | – | – | – | – | – | –
2 | COc1ccc(N2C(=O)c3[nH]nc(CC(C)C)c3C2c2ccc(F)cc2)cc1 (stereo not shown) [Compound 1] | > 99 | 5.60 | 5.70 | 5.89 | 5.36 | < 13 | > 20000 | 5.60 | 4.80 | 4.20 | 107 (≈ 40.6 µg/mL) | 345 | 96.4 | 8.4 | – | pEC50 [7]: 6.09; CC50 (host B10R cells): > 20000 nM; FaSSIF solubility (FaSSIF solubility): 130 µg/mL; Microsomal stability (mouse) Clint [8]: < 3.4 mL/min/g; Microsomal stability (mouse) t1/2 [8]: > 20 min; Whole blood stability (Whole blood stability): Pass; Plasma protein binding (Plasma protein binding): 97.5%
3 | COc1ccc(N2C(=O)c3[nH]nc(CC(C)C)c3C2c2ccccc2)cc1 (stereo not shown) [Compound 2] | > 99 | 5.43 | 5.62 | 5.77 | 5.38 | < 13 | > 20000 | 5.49 | 4.50 | 4.10 | 90 (≈ 32.5 µg/mL) | 370 | 95.8 | 8.4 | – | –
4 | C[C@H]1CN(c2n[nH]c3nc(N[C@H]4CC[C@H](NS(=O)(=O)CCC(F)(F)F)CC4)ncc23)CCO1 [GSK3186899] | – | – | – | – | – | – | – | – | – | – | – | – | – | – | 5.85 | –
5 | O=C(Nc1ccc(F)c(-c2ccn3c(N4CCOCC4)cnc3n2)c1)N1CCCC1 [GSK3494245] | – | – | – | – | – | – | – | – | – | – | – | – | – | – | 5.80 | –
6 | C[C@@H]1[C@H](O)[C@@H](C)/C=C/C=C/C=C/C=C/C=C/C=C/C=C/[C@H](O[C@@H]2O[C@H](C)[C@@H](O)[C@H](N)[C@@H]2O)C[C@@H]2O[C@](O)(C[C@@H](O)C[C@@H](O)[C@H](O)CC[C@@H](O)C[C@@H](O)CC(=O)O[C@H]1C)C[C@H](O)[C@H]2C(=O)O [amphotericin B] | – | – | – | – | – | – | – | – | – | – | – | – | – | – | – | pEC50 [10]: 6.70; concentration cytotoxic to the host cell (host macrophage): 5.0 µM
